One assay deals with LPCAT. In words: LPCAT assay, coconut P2 preparation. The assay is classed as biochemical, Cocos nucifera. The settings on record: substrates 12:0-CoA+12:0-LPC. An excerpt:
Lysophosphatidylcholine (LPC) acyltransferase (LPCAT) is an enzyme analogous to LPAAT, involved in the biosynthesis of membrane lipids (phosphatidylcholine and derivatives thereof) instead of storage oil. The possibility that the activity measured in the LPAAT assay is not true LPAAT, but rather an inefficient action of LPCAT on the LPAAT substrates, can be tested by direct assay for LPCAT. For example, the LPAAT activity of the coconut P2 preparation with the substrate combination 12:0-CoA+12:0-LPA is readily measurable, whereas the LPCAT activity of the same preparation with the substrates 12:0-CoA+12:0-LPC is undetectable. […] The activities on long-chain substrates may represent either a single acyltransferase enzyme able to use LPA and LPC acceptor substrates, or discrete "long-chain" LPAAT and LPCAT enzymes which are present together.

Assay [1] deals with coconut LPAAT. In words: LPAAT activity assay, coconut P2 membrane preparation. The following applies: coconut P2 preparation, same assay. It is filed as biochemical, Cocos nucifera. As to the method: To assay for LPAAT activity, the sample is incubated with lysophosphatidic acid (LPA) and acyl-coenzyme A (acyl-CoA) substrates in buffered solution. The acyl substituents of the two substrates are chosen to correspond with the specificity of the enzyme being measured. […] LPAAT activity is measured as the amount of radioactive product formed in a given assay time. The PA product is radioactive as a result of the transferred radiolabeled acyl group at the central carbon atom of the molecule, and the quantity of PA formed may be determined by measuring radioactivity of the PA fraction. […]
To stop the assay, 0.25 ml of 1M KCl in 0.2M H3 PO4 is added to the vial. […] The total radioactivity extracted into the organic phase is determined by liquid scintillation counting; a 100 μl sample of the organic phase is transferred to a 20 ml scintillation vial and allowed to dry, and scintillation fluid (3-5 ml) is added to the vial. The radioactivity of the sample, after subtraction of the "minus-enzyme" or "minus-LPA" radioactivities, is taken as an approximate indication of the amount of PA formed in the LPAAT-catalyzed reaction and therefore of LPAAT activity. […]

For assay [2], the target named is T1, coconut LPAAT (Cocos nucifera, UniProt Q42670).
T1 sequence (Q42670 1-308): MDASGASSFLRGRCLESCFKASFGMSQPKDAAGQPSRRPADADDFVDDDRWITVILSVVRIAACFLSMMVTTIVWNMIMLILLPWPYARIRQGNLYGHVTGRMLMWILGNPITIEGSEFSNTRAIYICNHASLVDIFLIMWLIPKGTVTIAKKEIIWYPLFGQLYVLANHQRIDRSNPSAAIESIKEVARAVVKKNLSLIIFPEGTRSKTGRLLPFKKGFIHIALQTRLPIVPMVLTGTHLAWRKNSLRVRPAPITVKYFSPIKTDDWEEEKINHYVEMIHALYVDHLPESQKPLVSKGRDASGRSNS
Described as above. It is filed as biochemical. On the set-up: white endosperm tissue lining the inside of the endocarp can be dissected and collected; from tissue; host or cells: immature coconut endosperm, P2 membrane fraction. As to the method: (§1) To assay for LPAAT activity, the sample is incubated with lysophosphatidic acid (LPA) and acyl-coenzyme A (acyl-CoA) substrates in buffered solution. The acyl substituents of the two substrates are chosen to correspond with the specificity of the enzyme being measured. For example, to measure activity of an LPAAT having preference for medium-chain substrates, lauroyl-LPA (lauroyl-lysophosphatidic acid) and lauroyl-CoA may be used, to measure activity of an LPAAT preferring longer-chain acyl groups, oleoyl-LPA and oleoyl-CoA may be used, to measure activity of an LPAAT preferring very-long chain substrate, erucyl-LPA and erucyl-CoA may be used, and so on, depending upon the type of LPAAT to be tested. The acyl group of one substrate is radioactively labeled in order to detect the product formed. In the examples which follow the acyl substituent of the acyl-CoA substrate is radiolabeled with ^14 C in the carboxyl group. LPAAT activity results in transfer of this acyl group from the acyl-CoA "donor" substrate to the LPA "acceptor" substrate, converting the latter into the product, phosphatidic acid (PA). LPAAT activity is measured as the amount of radioactive product formed in a given assay time. The PA product is radioactive as a result of the transferred radiolabeled acyl group at the central carbon atom of the molecule, and the quantity of PA formed may be determined by measuring radioactivity of the PA fraction. For this measurement, the PA is first separated from the acyl-CoA substrate by solvent partitioning, or by thin-layer chromatography (TLC).
(§2) 20 μl of the sample to be assayed for LPAAT activity is mixed with 217.5 μl of an assay ingredient mixture in a 4-ml, screw-cap vial. […] The incubation takes place in a water bath at 30° C., for 20-30 minutes.
(§3) To stop the assay, 0.25 ml of 1M KCl in 0.2M H3 PO4 is added to the vial. At this point, 40 μl BSA (bovine serum albumin, fraction V) at 1 mg/ml are added, followed by 0.75 ml of a solution of 67 μg/ml unlabeled PA (acting as a "carrier" to facilitate partitioning) in chloroform/methanol (2:1, v/v). The chain lengths of the PA acyl groups are chosen to correspond to those used in the assay substrates. Upon thorough mixing of these components the radiolabeled PA product of the LPAAT reaction partitions into the organic phase and away from the unreacted acyl-CoA and LPA. The vial is centrifuged briefly at low speed to facilitate the separation of organic (lower) and aqueous (upper) phases. The aqueous phase is then removed and discarded. The total radioactivity extracted into the organic phase is determined by liquid scintillation counting; a 100 μl sample of the organic phase is transferred to a 20 ml scintillation vial and allowed to dry, and scintillation fluid (3-5 ml) is added to the vial. The radioactivity of the sample, after subtraction of the "minus-enzyme" or "minus-LPA" radioactivities, is taken as an approximate indication of the amount of PA formed in the LPAAT-catalyzed reaction and therefore of LPAAT activity.
A more accurate estimation of the LPAAT activity may be obtained by separating the PA product from these contaminants by TLC. The remaining organic phase is applied to a silica TLC plate. Ascending chromatography is carried out for 50 minutes, using the solvent mixture chloroform/pyridine/88% formic acid (50:30:7, v/v). After the plate has dried, the distribution of radioactivity is visualized and quantitated using an AMBIS radioanalytic imaging system (AMBIS Systems Inc., San Diego, Calif.). From prior application of standard lipid components the Rf of the PA is known. The radioactivity associated with the PA spot is expressed as a percentage of the total radioactivity of the assay sample loaded on the plate. This ratio provides an indication of the proportion of the scintillation counts which represent the PA product, and may be used to correct the counts to obtain the total PA radioactivity formed in the assay. […]

The test system of the next assay is bay LPAAT. In words: LPAAT activity assay, California bay P2 membrane preparation. The settings on record: P2 membrane preparation; acyl-CoA donor varied, acceptor 12:0-LPA. The assay is classed as biochemical, Umbellularia californica.
A further assay concerns Rapeseed LPAAT. In words: LPAAT activity assay, rapeseed P2 membrane preparation. The assay is classed as biochemical, Brassica napus. The following applies: acyl-CoA donor varied, acceptor 12:0-LPA. The method, then:
as §1, §2, §3
A more accurate estimation of the LPAAT activity may be obtained by separating the PA product from these contaminants by TLC. The remaining organic phase is applied to a silica TLC plate. […] After the plate has dried, the distribution of radioactivity is visualized and quantitated using an AMBIS radioanalytic imaging system (AMBIS Systems Inc., San Diego, Calif.). From prior application of standard lipid components the Rf of the PA is known. The radioactivity associated with the PA spot is expressed as a percentage of the total radioactivity of the assay sample loaded on the plate. This ratio provides an indication of the proportion of the scintillation counts which represent the PA product, and may be used to correct the counts to obtain the total PA radioactivity formed in the assay.
A P2 membrane homogenate from immature embryos of developing rapeseed (Brassica napus) seeds is prepared essentially as described above, except as noted below.

For assay [3], the target named is T2, LPAAT of transformant 5511-5 (Cocos nucifera, UniProt Q42670).
T2 construct: crude P2 membranes, host LPAAT also present
T2 sequence (Q42670 1-308): T1 sequence (Q42670 1-308)
In words: LPAAT acyl-CoA specificity, P2 preparation of LPAAT-transformed line 5511-5. It is filed as biochemical, Rapeseed. The settings on record: acyl-CoA donor varied at 5 μM, acceptor 12:0-LPA; 30 minute reaction. The method, then:
(§4) Detailed acyl-CoA chain-length specificity analysis of control P2 preparations and LPAAT-transformed line 5511-5 were determined as described above, using the original 30 minute reaction time. The acyl-CoA substrates for this analysis are present in methanol, and thus the assay also had the following modifications. The first solution placed in the assay vial was the volume of each radiolabeled acyl-CoA required for 5 μM final assay concentration. […] After mixing to redissolve the acyl-CoA off the vial wall, the reaction is started by addition of 25 μl of a 5-fold diluted P2 preparation and continued as before. Acyl-CoA substrates used in this analysis were 8:0, 10:0, 12:0, 14:0, 16:0, 18:0, and 18:1. The acceptor substrate in these assays was 12:0-LPA.

A further assay relates to control rapeseed LPAAT. In words: LPAAT acyl-CoA specificity, control P2 preparation. It is filed as biochemical. The settings on record: acyl-CoA donor varied at 5 μM, acceptor 12:0-LPA; 30 minute reaction. The method, then:
as §4

The target in assay [4] is T1, coconut LPAAT. In words: Acyl-CoA specificity of coconut LPAAT expressed in E. coli (pCGN5505), membrane fractions. The assay is classed as biochemical. Further details: the SalI/BamHI fragment of pCGN5504 containing the entire coconut LPAAT encoding region; made in house; host or cells: E. coli BL21(DE3), membrane fractions. The settings on record: acceptor 12:0-LPA. The method, then:
The samples are centrifuged at 12,000 g for 15 minutes. The resulting supernatant fractions are centrifuged for two hours at 134,000 g, and the pelleted membranes suspended in 50 mM HEPES, 200 mM NaCl, 20% (w/v) glycerol, 5 mM β-mercaptoethanol, pH 7.5. Membrane fractions are assayed for acyl-CoA substrate specificities with 12:0-LPA and various acyl-CoA species as described in Example 1. Membrane preparations from cultures of E. coli and from immature coconut endosperm are combined with soybean phospholipids and diluted in 1M NaCl in Buffer A to simulate the pre-assay conditions of the solubilized enzyme.

Method for bay LPAAT: To assay for LPAAT activity, the sample is incubated with lysophosphatidic acid (LPA) and acyl-coenzyme A (acyl-CoA) substrates in buffered solution. The acyl substituents of the two substrates are chosen to correspond with the specificity of the enzyme being measured. […] The acyl group of one substrate is radioactively labeled in order to detect the product formed. In the examples which follow the acyl substituent of the acyl-CoA substrate is radiolabeled with ^14 C in the carboxyl group. LPAAT activity results in transfer of this acyl group from the acyl-CoA "donor" substrate to the LPA "acceptor" substrate, converting the latter into the product, phosphatidic acid (PA). LPAAT activity is measured as the amount of radioactive product formed in a given assay time. The PA product is radioactive as a result of the transferred radiolabeled acyl group at the central carbon atom of the molecule, and the quantity of PA formed may be determined by measuring radioactivity of the PA fraction. For this measurement, the PA is first separated from the acyl-CoA substrate by solvent partitioning, or by thin-layer chromatography (TLC).

Consider `CCCCCCCCCCCC(=O)OCC(O)COP(=O)([O-])OCC[N+](C)(C)C` (stereo not drawn) [12:0-LPC, lauroyl-lysophosphatidylcholine], for which the LPCAT activity entry with LPCAT is “undetectable”.

In the case of “12:0-ACP: 12:0 acyl-ACP tested as LPAAT donor substrate”, the “hydrolysis by the P2 preparation” value in the assay with coconut LPAAT [1] is “not hydrolyzed”. Moreover, the “utilization as LPAAT donor substrate instead of 12:0-CoA” value with coconut LPAAT [2] (coconut P2 preparation) was “will not utilize”.

Consider `CCCCCCCCCCCCCCCCCC(=O)SCCNC(=O)CCNC(=O)[C@H](O)C(C)(C)COP(=O)(O)OP(=O)(O)OC[C@H]1O[C@@H](n2cnc3c(N)ncnc32)[C@H](O)[C@@H]1OP(=O)(O)O` [18:0], for which the “LPAAT Activity from Bay” value with bay LPAAT is given as 6 pmol PA formed/30 min assay. Also, the “LPAAT Activity from Rapeseed” value with Rapeseed LPAAT is reported as 21 pmol PA formed/30 min assay. The “Cpm PA Product, 5511-5” value in assay [3] is 2038 Cpm. In addition, the “Cpm PA Product, Control” value in the assay on control rapeseed LPAAT came to 1514 Cpm. Moreover, the “utilization by E. coli expressed coconut LPAAT” value on coconut LPAAT [4] is listed as “less well utilized”. The “LPAAT Activity from Coconut” value at coconut LPAAT [2] (P2 membrane preparation, acyl-CoA donor varied, acceptor 12:0-LPA) is 13 pmol PA formed/30 min assay.
